# Results published in patent US4963565A, “In vivo treatment of mycobacterial infections with 6-cyclo octylamino-5,8-quinoline quinone” (priority 1986, dated 1990).
# Experiments:
# M. intracellulare [1] = conditions: Gangadharam et al.; cited from earlier work
# M. intracellulare [2] = experiment: In vitro activity against serovars of M. intracellulare, radiometric (Bactec) method; assay type: cell-based
# Procedure: A study of the effect of CQQ on different serovars of M. intracellulare in vitro was performed using the radiometric (Bactec) method. Maximum growth index (GI) of 999 was determined (for control models) in terms of the number of days necessary for the culture to reach this stage. GI is measured using the special instrument which reads the amount of ^14 C labelled CO2 liberated from the strains using the ^14 C labelled substrates.
# M. intracellulare 571-8 = experiment: In vivo effectiveness against chronic M. intracellulare infections in C57Bl/6 mice (Examples IV and V); parameters: species or system M. intracellulare (host: C57Bl/6 mice)
# [3] = test system: M. intracellulare (571-8 strain); experiment: In vivo activity of different doses against acute M. intracellulare infections in Beige mice (Example III); parameters: species or system M. intracellulare (host: Beige mice)
# Mycobacterium leprae = experiment: Inhibitory activity against Mycobacterium leprae in the macrophage model (3H thymidine uptake); assay type: cell-based, M. leprae (in human monocyte derived macrophages); parameters: Inhibition of 3H thymidine uptake: dose or concentration left out as unconfirmed
# Text: The effect of CQQ on Mycobacterium leprae, the causative agent for leprosy, was studied using monocyte derived macrophages obtained from human volunteers.
# Blood from a healthy volunteer was drawn and monocytes were removed and cultured to the macrophage stage. This required about 7 days. The macrophages were then exposed to M. leprae bacilli obtained from biopsy specimens of leprosy patients. One sample was exposed to CQQ, while other samples were exposed to DDS (diaminodiphenyl sulphone), the standard antileprosy drug, or rifampin, at various concentrations. Macrophages were exposed to radiolabelled tritium (^3 H) labeled thymidine, and its uptake was measured using a liquid scintillation counter. A control model of M. leprae exposed macrophages, which was not treated was used as well. The uptake of thymidine is a measure of antimycobacterial activity.
# lymphocytes = experiment: Effect on chromosomal structures in lymphocytes; assay type: cell-based, human; conditions: 0.5 ml of 10 mcg/ml solution
# Procedure: In order to determine the effect of CQQ on chromosomes, blood was collected from a healthy volunteer, and lymphocytes were isolated from the sample. These were cultivated in a folate deficient medium, and after approximately 24 hours of cultivation, 0.5 ml of a solution of CQQ (10 mcg/ml) was added to the culture. Incubation at 37° C. for 72 hours followed. The lymphocytes were then harvested, following routine laboratory porocedures and were stained with Giemsa stain.
# [4] = 8.0 mcg/ml, serovar 3, strain 7-17
# [5] = 8.0 mcg/ml, serovar 3, strain 9-75
# [6] = 8.0 mcg/ml, serovar 3, strain 12-1
# [7] = 8.0 mcg/ml, serovar 3, strain 971-8
# [8] = 8.0 mcg/ml, serovar 4, strain 5-13
# [9] = 8.0 mcg/ml, serovar 4, strain 7-55
# [10] = 8.0 mcg/ml, serovar 4, strain 8-50
# [11] = 8.0 mcg/ml, serovar 4, strain TMC1463
# [12] = 8.0 mcg/ml, serovar 9, strain 2-10
# [13] = 8.0 mcg/ml, serovar 9, strain 6-38
# [14] = 8.0 mcg/ml, serovar 9, strain 7-25
# [15] = 8.0 mcg/ml, serovar 9, strain 1784-286
# [16] = 8.0 mcg/ml, serovar 14, strain 7-3
# [17] = 8.0 mcg/ml, serovar 14, strain 7-43
# [18] = 8.0 mcg/ml, serovar 14, strain BOONE
# [19] = 8.0 mcg/ml, serovar 14, strain P-39
# [20] = 16.0 mcg/ml, serovar 3, strain 7-17
# [21] = 16.0 mcg/ml, serovar 3, strain 9-75
# [22] = 16.0 mcg/ml, serovar 3, strain 12-1
# [23] = 16.0 mcg/ml, serovar 3, strain 971-8
# [24] = 16.0 mcg/ml, serovar 4, strain 5-13
# [25] = 16.0 mcg/ml, serovar 4, strain 7-55
# [26] = 16.0 mcg/ml, serovar 4, strain 8-50
# [27] = 16.0 mcg/ml, serovar 4, strain TMC1463
# [28] = 16.0 mcg/ml, serovar 9, strain 2-10
# [29] = 16.0 mcg/ml, serovar 9, strain 6-38
# [30] = 16.0 mcg/ml, serovar 9, strain 7-25
# [31] = 16.0 mcg/ml, serovar 9, strain 1784-286
# [32] = 16.0 mcg/ml, serovar 14, strain 7-3
# [33] = 16.0 mcg/ml, serovar 14, strain 7-43
# [34] = 16.0 mcg/ml, serovar 14, strain BOONE
# [35] = 16.0 mcg/ml, serovar 14, strain P-39
compound,measurement,setting,value
"O=C1C(NC2CCCCCCC2)=CC(=O)c2ncccc21 [CQQ, 6-cyclo octylamino-5,8-quinoline quinone]",In vitro effectiveness against M. intracellulare,M. intracellulare [1],effective against M. intracellulare and M. tuberculosis in vitro
same,Day maximum GI achieved,M. intracellulare [2]; [4],2 days
same,Maximum GI,M. intracellulare [2]; [4],16
same,Day maximum GI achieved,M. intracellulare [2]; [5],2 days
same,Maximum GI,M. intracellulare [2]; [5],22
same,Day maximum GI achieved,M. intracellulare [2]; [6],2 days
same,Maximum GI,M. intracellulare [2]; [6],4
same,Day maximum GI achieved,M. intracellulare [2]; [7],3 days
same,Maximum GI,M. intracellulare [2]; [7],20
same,Day maximum GI achieved,M. intracellulare [2]; [8],1 days
same,Maximum GI,M. intracellulare [2]; [8],14
same,Day maximum GI achieved,M. intracellulare [2]; [9],2 days
same,Maximum GI,M. intracellulare [2]; [9],7
same,Day maximum GI achieved,M. intracellulare [2]; [10],2 days
same,Maximum GI,M. intracellulare [2]; [10],15
same,Day maximum GI achieved,M. intracellulare [2]; [11],1 days
same,Maximum GI,M. intracellulare [2]; [11],6
same,Day maximum GI achieved,M. intracellulare [2]; [12],1 days
same,Maximum GI,M. intracellulare [2]; [12],14
same,Day maximum GI achieved,M. intracellulare [2]; [13],1 days
same,Maximum GI,M. intracellulare [2]; [13],13
same,Day maximum GI achieved,M. intracellulare [2]; [14],4 days
same,Maximum GI,M. intracellulare [2]; [14],33
same,Day maximum GI achieved,M. intracellulare [2]; [15],1 days
same,Maximum GI,M. intracellulare [2]; [15],9
same,Day maximum GI achieved,M. intracellulare [2]; [16],2 days
same,Maximum GI,M. intracellulare [2]; [16],5
same,Day maximum GI achieved,M. intracellulare [2]; [17],1 days
same,Maximum GI,M. intracellulare [2]; [17],1
same,Day maximum GI achieved,M. intracellulare [2]; [18],1 days
same,Maximum GI,M. intracellulare [2]; [18],13
same,Day maximum GI achieved,M. intracellulare [2]; [19],1 days
same,Maximum GI,M. intracellulare [2]; [19],21
same,Inhibition of the strains,M. intracellulare [2]; 16.0 and 8.0 mcg/ml,Complete inhibition
same,Day maximum GI achieved,M. intracellulare [2]; [20],1 days
same,Maximum GI,M. intracellulare [2]; [20],5
same,Day maximum GI achieved,M. intracellulare [2]; [21],1 days
same,Maximum GI,M. intracellulare [2]; [21],14
same,Day maximum GI achieved,M. intracellulare [2]; [22],2 days
same,Maximum GI,M. intracellulare [2]; [22],6
same,Day maximum GI achieved,M. intracellulare [2]; [23],1 days
same,Maximum GI,M. intracellulare [2]; [23],8
same,Day maximum GI achieved,M. intracellulare [2]; [24],1 days
same,Maximum GI,M. intracellulare [2]; [24],4
same,Day maximum GI achieved,M. intracellulare [2]; [25],2 days
same,Maximum GI,M. intracellulare [2]; [25],4
same,Day maximum GI achieved,M. intracellulare [2]; [26],1 days
same,Maximum GI,M. intracellulare [2]; [26],6
same,Day maximum GI achieved,M. intracellulare [2]; [27],1 days
same,Maximum GI,M. intracellulare [2]; [27],5
same,Day maximum GI achieved,M. intracellulare [2]; [28],1 days
same,Maximum GI,M. intracellulare [2]; [28],12
same,Day maximum GI achieved,M. intracellulare [2]; [29],1 days
same,Maximum GI,M. intracellulare [2]; [29],6
same,Day maximum GI achieved,M. intracellulare [2]; [30],1 days
same,Maximum GI,M. intracellulare [2]; [30],7
same,Day maximum GI achieved,M. intracellulare [2]; [31],1 days
same,Maximum GI,M. intracellulare [2]; [31],5
same,Day maximum GI achieved,M. intracellulare [2]; [32],1 days
same,Maximum GI,M. intracellulare [2]; [32],4
same,Day maximum GI achieved,M. intracellulare [2]; [33],1 days
same,Maximum GI,M. intracellulare [2]; [33],9
same,Day maximum GI achieved,M. intracellulare [2]; [34],1 days
same,Maximum GI,M. intracellulare [2]; [34],7
same,Day maximum GI achieved,M. intracellulare [2]; [35],1 days
same,Maximum GI,M. intracellulare [2]; [35],22
same,Effect on GI rates of all M. intracellulare strains,M. intracellulare [2]; both concentrations (16.0 and 8.0 mcg/ml),dramatic decrease in GI rates for all M. intracellulare strains
same,Duration of statistically significant difference vs control,"M. intracellulare 571-8; Example IV, 10 mg/kg (P 0.05)",up to 3 weeks
same,Reduction in CFU counts in spleen and lungs vs untreated control,"M. intracellulare 571-8; Example IV, 10 mg/kg, followed for 28 days, FIG. 5",considerable reduction in CFU counts both in spleen and lungs
same,In vivo antimycobacterial activity in the chronic infection,"M. intracellulare 571-8; Example V, FIG. 6",considerable in vivo antimycobacterial activity
same,"Dose comparison, 20 vs 10 mg/kg",[3]; 20 mg/kg vs 10 mg/kg,The dose of 20 mg/kg is better than 10 mg/kg dose
same,"Inhibitory activity, reduction of CFU counts from spleens and lungs","[3]; 10 or 20 mg/kg, FIGS. 3 and 4",considerable inhibitory activity
same,Duration of statistically significant differences in CFU counts,"[3]; 10 or 20 mg/kg, spleens and lungs (P 0.05)",up to 6 weeks
same,Effect in lung vs spleen,[3]; FIG. 4 vs FIG. 3,more pronounced in the lung (FIG. 4) than in the spleen
same,Counts per minute (3H thymidine uptake),"Mycobacterium leprae; Sample I, 5 NG/ML",2.4 COUNTS PER MINUTE
same,Counts per minute (3H thymidine uptake),"Mycobacterium leprae; Sample I, 25 NG/ML",93 COUNTS PER MINUTE
same,Counts per minute (3H thymidine uptake),"Mycobacterium leprae; Sample I, 50 NG/ML",93 COUNTS PER MINUTE
same,Counts per minute (3H thymidine uptake),"Mycobacterium leprae; Sample I, 100 NG/ML",84 COUNTS PER MINUTE
same,Counts per minute (3H thymidine uptake),"Mycobacterium leprae; Sample I, CQQ 10 NG/ML",2.3 COUNTS PER MINUTE
same,Counts per minute (3H thymidine uptake),"Mycobacterium leprae; Sample II, 5 NG/ML",6 COUNTS PER MINUTE
same,Counts per minute (3H thymidine uptake),"Mycobacterium leprae; Sample II, 25 NG/ML",69 COUNTS PER MINUTE
same,Counts per minute (3H thymidine uptake),"Mycobacterium leprae; Sample II, 50 NG/ML",76 COUNTS PER MINUTE
same,Counts per minute (3H thymidine uptake),"Mycobacterium leprae; Sample II, 100 NG/ML",76 COUNTS PER MINUTE
same,Counts per minute (3H thymidine uptake),"Mycobacterium leprae; Sample II, 200 NG/ML",91 COUNTS PER MINUTE
same,Counts per minute (3H thymidine uptake),"Mycobacterium leprae; Sample II, CQQ 10 NG/ML",13 COUNTS PER MINUTE
same,Counts per minute (3H thymidine uptake),"Mycobacterium leprae; Sample III, 5 NG/ML",2 COUNTS PER MINUTE
same,Counts per minute (3H thymidine uptake),"Mycobacterium leprae; Sample III, 25 NG/ML",37 COUNTS PER MINUTE
same,Counts per minute (3H thymidine uptake),"Mycobacterium leprae; Sample III, CQQ 10 NG/ML",2 COUNTS PER MINUTE
same,Activity with another strain of M. leprae,Mycobacterium leprae; another strain,even greater activity
same,Antileprosy activity,Mycobacterium leprae; conclusion from Table 3,considerable antileprosy activity
same,Inhibition of 3H thymidine uptake,Mycobacterium leprae; two strains of M. leprae,significant inhibition
same,Assessment of chromosomal breaks,lymphocytes; 72 hours,fully within the normal limits
same,Total number of chromosomal breaks,"lymphocytes; 72 hours at 37° C., at least 50 cells counted",7
same,Cells with chromosomal breaks,"lymphocytes; 72 hours at 37° C., of at least 50 cells counted",5
